Experimental data taken from EP4194453A1, “PYRAZINE COMPOUNDS FOR THE CONTROL OF INVERTEBRATE PESTS” (BASF SE, priority 2021, dated 2023).

Assays:
Format in all cases: in vivo
[1] = system: Diamond back moth (Plutella xylostella); assay: Diamond back moth leaf-dip test on cabbage leaves; settings: 3rd instar larvae, 72 hours after treatment, in comparison with untreated controls
Experimental: The active compound was dissolved at the desired concentration in a mixture of 1:1 (vol:vol) distilled water: acetone. Surfactant (Kinetic HV) was added at a rate of 0.01% (vol/vol). The test solution was prepared on the day of use.
Leaves of cabbage were dipped in test solution and air-dried. Treated leaves were placed in petri dishes lined with moist filter paper and inoculated with ten 3rd instar larvae. Mortality was recorded 72 hours after treatment. Feeding damages were also recorded using a scale of 0-100%.

[2] = system: Green Peach Aphid (Myzus persicae); assay: Green peach aphid systemic test, artificial diet in microtiter plates; settings: 72 h, adult aphids, 3 days, in comparison with untreated controls
Text: For evaluating control of green peach aphid (Myzus persicae) through systemic means the test unit consisted of 96-well-microtiter plates containing liquid artificial diet under an artificial mem brane.
The compounds were formulated using a solution containing 75% v/v water and 25% v/v DMSO. Different concentrations of formulated compounds were pipetted into the aphid diet, using a custom built pipetter, at two replications.
After application, 5-8 adult aphids were placed on the artificial membrane inside the microtiter plate wells. The aphids were then allowed to suck on the treated aphid diet and incubated at about 23 ± 1°C and about 50 ± 5 % relative humidity for 3 days. Aphid mortality and fecundity was then visually assessed.

[3] = system: Southern armyworm (Spodoptera eridania), 2nd instar larvae; assay: Southern armyworm foliar spray test on lima bean plants; settings: 96 h, 4 days after treatment, in comparison with untreated controls
Experimental: The active compounds were formulated by a Tecan liquid handler in 100% cyclohexanone as a 10,000 ppm solution supplied in tubes. The 10,000 ppm solution was serially diluted in 100% cyclohexanone to make interim solutions. These served as stock solutions for which final dilutions were made by the Tecan in 50% acetone:50% water (v/v) into 10 or 20ml glass vials. A nonionic surfactant (Kinetic®) was included in the solution at a volume of 0.01% (v/v). The vials were then inserted into an automated electrostatic sprayer equipped with an atomizing nozzle for application to plants/insects. Lima bean plants (variety Sieva) were grown 2 plants to a pot and selected for treatment at the 1st true leaf stage. Test solutions were sprayed onto the foliage by an auto-mated electrostatic plant sprayer equipped with an atomizing spray nozzle. The plants were dried in the sprayer fume hood and then removed from the sprayer. Each pot was placed into perforated plastic bags with a zip closure. Ten to 11 armyworm larvae were placed into the bag and the bags zipped closed. Test plants were maintained in a growth room at about 25°C and about 20-40% relative humidity for 4 days, avoiding direct exposure to fluorescent light (14:10 light:dark photoperiod) to prevent trapping of heat inside the bags. Mortality and reduced feeding were assessed 4 days after treatment, compared to untreated control plants.

[4] = system: Boll weevil (Anthonomus grandis); assay: Boll weevil insect diet test in microtiter plates; settings: 120 h, egg and larval mortality, 5 days, in comparison with untreated controls
Experimental: For evaluating control of boll weevil (Anthonomus grandis) the test unit consisted of 96-well-microtiter plates containing an insect diet and 5-10 A. grandis eggs.
The compounds were formulated using a solution containing 75% v/v water and 25% v/v DMSO. Different concentrations of formulated compounds were sprayed onto the insect diet at 5µl, using a custom-built micro atomizer, at two replications.
After application, microtiter plates were incubated at about 25 ± 1°C and about 75 ± 5 % relative humidity for 5 days. Egg and larval mortality was then visually assessed.

[5] = system: Tobacco budworm (Heliothis virescens); assay: Tobacco budworm insect diet test in microtiter plates; settings: 120 h, egg and larval mortality, 5 days, in comparison with untreated controls
Experimental: For evaluating control of tobacco budworm (Heliothis virescens) the test unit consisted of 96-well-microtiter plates containing an insect diet and 15-25 H. virescens eggs.
The compounds were formulated using a solution containing 75% v/v water and 25% v/v DMSO. Different concentrations of formulated compounds were sprayed onto the insect diet at 10 µl using a custom-built micro atomizer, at two replications.
After application, microtiter plates were incubated at about 28 ± 1°C and about 80 ± 5 % relative humidity for 5 days. Egg and larval mortality was then visually assessed.

[6] = system: Orchid thrips (Dichromothrips corbetti); assay: Orchid thrips floral-immersion test; settings: adult thrips, 72 hours after treatment, in comparison with untreated controls
Experimental: Dichromothrips corbetti adults used for bioassay were obtained from a colony maintained continuously under laboratory conditions. For testing purposes, the test compound is diluted in a 1:1 mixture of acetone:water (vol:vol), plus Kinetic HV at a rate of 0.01% v/v.
Thrips potency of each compound was evaluated by using a floral-immersion technique. All petals of individual, intact orchid flowers were dipped into treatment solution and allowed to dry in Petri dishes. Treated petals were placed into individual re-sealable plastic along with about 20 adult thrips. All test arenas were held under continuous light and a temperature of about 28°C for duration of the assay. After 3 days, the numbers of live thrips were counted on each petal. The percent mortality was recorded 72 hours after treatment.

Cc1nc(-c2nccnc2C(C)NC(=O)c2cc(C(F)(F)F)cc(C(F)(F)F)c2)no1 (stereo not drawn) [I-1, N-[1-[3-(5-methyl-1,2,4-oxadiazol-3-yl)pyrazin-2-yl]ethyl]-3,5-bis(trifluoromethyl)benzamide]
≥ 75%: mortality at 300 ppm [1] | mortality at 2500 ppm [2] | mortality at 300 ppm [3] | mortality at 2500 ppm [4] | mortality at 2500 ppm [5]

CCN(C)C(=O)c1nc(-c2nccnc2C(C)NC(=O)c2cc(C(F)(F)F)cc(C(F)(F)F)c2)no1 (stereo not drawn) [I-2, 3-[3-[1-[[3,5-bis(trifluoromethyl)benzoyl]amino]ethyl]pyrazin-2-yl]-N-ethyl-N-methyl-1,2,4-oxadiazole-5-carboxamide]
≥ 75%: mortality at 300 ppm [1] | mortality at 2500 ppm [4] | mortality at 2500 ppm [5]

Cc1nc(-c2nccnc2C(C)N(CC2CC2)C(=O)c2cc(C(F)(F)F)cc(C(F)(F)F)c2)no1 (stereo not drawn) [I-3, N-(cyclopropylmethyl)-N-[1-[3-(5-methyl-1,2,4-oxadiazol-3-yl)pyrazin-2-yl]ethyl]-3,5-bis(trifluoromethyl)benzamide]
≥ 75%: mortality at 300 ppm [1] | mortality at 2500 ppm [2] | mortality at 300 ppm [3] | mortality at 2500 ppm [4] | mortality at 300 ppm [6]

CNC(=O)c1nc(-c2nccnc2C(C)N(CC2CC2)C(=O)c2cc(C(F)(F)F)cc(C(F)(F)F)c2)no1 (stereo not drawn) [I-4, 3-[3-[1-[[3,5-bis(trifluoromethyl)benzoyl]-(cyclopropylmethyl)amino]ethyl]pyrazin-2-yl]-N-methyl-1,2,4-oxadiazole-5-carboxamide]
≥ 75%: mortality at 2500 ppm [4] | mortality at 2500 ppm [5]
